Data reported in ChEMBL document CHEMBL1128462, “In vivo and in vitro studies on the neurotoxic potential of 6-hydroxydopamine analogs” (J Med Chem, 1995).

What was measured:
[1] = species on record: Mus musculus; test: Long term depletion of Dopamine(DA) in Whole mouse Brain region of cortex at a high dose (300 nmol); type: functional
[2] = species on record: Mus musculus; test: Long term depletion of Serotonin(5-HT) in Whole mouse Brain at a high dose (300 nmol); type: functional
[3] = species on record: Mus musculus; test: Long term depletion of Dopamine(DA) in Whole mouse Brain region of hypothalamus at a high dose (300 nmol); type: functional
[4] = species on record: Mus musculus; test: Long term depletion of Dopamine(DA) in Whole mouse Brain region of hippocampus at a high dose (300 nmol); type: functional
[5] = species on record: Mus musculus; test: Long term depletion of Norepinephrine (NE) in Whole mouse Brain region of cortex at a high dose (300 nmol); type: functional
[6] = species on record: Rattus norvegicus; test: Evaluated for the stimulation of synaptosomal release of Dopamine (release constant); type: functional
[7] = species on record: Mus musculus; test: Long term depletion of Serotonin(5-HT) in Whole mouse Brain region of hippocampus at a high dose (300 nmol); type: functional
[8] = species on record: Mus musculus; test: Long term depletion of Dopamine(DA) in Whole mouse Brain at a low dose (60 nmol); type: functional
[9] = species on record: Mus musculus; test: Long term depletion of Serotonin(5-HT) in Whole mouse Brain region of cerebellum at a high dose (300 nmol); type: functional
[10] = species on record: Mus musculus; test: Long term depletion of Serotonin(5-HT) in Whole mouse Brain region of medulla-pons at a high dose (300 nmol); type: functional
[11] = species on record: Rattus norvegicus; test: Evaluated for the stimulation of synaptosomal release of norepinephrine (release constant); type: functional
[12] = species on record: Mus musculus; test: Long term depletion of Norepinephrine (NE) in Whole mouse Brain region of thalamus at a high dose (300 nmol); type: functional
[13] = species on record: Mus musculus; test: Long term depletion of Norepinephrine (NE) in Whole mouse Brain region of hypothalamus at a high dose (300 nmol); type: functional
[14] = species on record: Mus musculus; test: Long term depletion of Norepinephrine (NE) in Whole mouse Brain at a high dose (300 nmol); type: functional
[15] = species on record: Mus musculus; test: Long term depletion of Norepinephrine (NE) in Whole mouse Brain region of medulla-pons at a high dose (300 nmol); type: functional
[16] = species on record: Mus musculus; test: Long term depletion of Dopamine(DA) in Whole mouse Brain at a high dose (300 nmol); type: functional
[17] = species on record: Mus musculus; test: Noradrenergic effect was determined by depletion effect of Serotonin(5-HT) in mouse brain regions expressed as d50; type: functional
[18] = species on record: Mus musculus; test: Long term depletion of Serotonin(5-HT) in Whole mouse Brain region of cortex at a high dose (300 nmol); type: functional
[19] = species on record: Mus musculus; test: Long term depletion of Dopamine(DA) in Whole mouse Brain region of medulla-pons at a high dose (300 nmol); type: functional
[20] = species on record: Mus musculus; test: Long term depletion of Norepinephrine (NE) in Whole mouse Brain region of hippocampus at a high dose (300 nmol); type: functional
[21] = species on record: Mus musculus; test: Long term depletion of Serotonin(5-HT) in Whole mouse Brain region of thalamus at a high dose (300 nmol); type: functional
[22] = species on record: Mus musculus; test: Long term depletion of Dopamine(DA) in Whole mouse Brain region of cerebellum at a high dose (300 nmol); type: functional
[23] = species on record: Mus musculus; test: Long term depletion of Norepinephrine (NE) in Whole mouse Brain, region of midbrain at a high dose (300 nmol); type: functional
[24] = species on record: Mus musculus; test: Long term depletion of Serotonin(5-HT) in Whole mouse Brain region of striatum at a high dose (300 nmol); type: functional
[25] = species on record: Mus musculus; test: Noradrenergic effect was determined by depletion effect of Nerepinephrine (NE) in mouse brain regions expressed as log d50; type: functional, organism-based
[26] = species on record: Mus musculus; test: Long term depletion of Norepinephrine (NE) in Whole mouse Brain at a low dose (60 nmol); type: functional
[27] = species on record: Mus musculus; test: Long term depletion of Serotonin(5-HT) in Whole mouse Brain, region of midbrain at a high dose (300 nmol); type: functional
[28] = species on record: Mus musculus; test: Noradrenergic effect was determined by depletion effect of Nerepinephrine (NE) in mouse brain regions expressed as d50; type: functional
[29] = species on record: Mus musculus; test: Long term depletion of Norepinephrine (NE) in Whole mouse Brain region of cerebellum at a high dose (300 nmol); type: functional
[30] = species on record: Mus musculus; test: Long term depletion of Serotonin(5-HT) in Whole mouse Brain at a low dose (60 nmol); type: functional
[31] = species on record: Mus musculus; test: Long term depletion of Dopamine(DA) in Whole mouse Brain region of striatum at a high dose (300 nmol); type: functional
[32] = species on record: Mus musculus; test: Noradrenergic effect was determined by depletion effect of Dopamine(DA) in mouse brain regions expressed as log d50; type: functional, organism-based
[33] = species on record: Mus musculus; test: Noradrenergic effect was determined by depletion effect of Serotonin(5-HT) in mouse brain regions expressed as log d50; type: functional, organism-based
[34] = target: Sodium-dependent dopamine transporter (Rattus norvegicus, UniProt P23977); test: Evaluated for the Competitive inhibition of uptake of dopamine transporter
[35] = species on record: Mus musculus; test: Long term depletion of Serotonin(5-HT) in Whole mouse Brain region of hypothalamus at a high dose (300 nmol); type: functional
[36] = target: T1, Norepinephrine transporter (Rattus norvegicus, UniProt Q9WTR4); test: Evaluated for the Competitive inhibition of uptake of norepinephrine
[37] = species on record: Mus musculus; test: Long term depletion of Norepinephrine (NE) in Whole mouse Brain region of striatum at a high dose (300 nmol); type: functional
[38] = species on record: Mus musculus; test: Noradrenergic effect was determined by depletion effect of Dopamine(DA) in mouse brain regions expressed as d50; type: functional
[39] = species on record: Mus musculus; test: Long term depletion of Dopamine(DA) in Whole mouse Brain, region of midbrain at a high dose (300 nmol); type: functional
[40] = species on record: Mus musculus; test: Long term depletion of Dopamine(DA) in Whole mouse Brain region of thalamus at a high dose (300 nmol); type: functional
[41] = species on record: Mus musculus; test: Long term depletion of Dopamine(DA) in Whole mouse Brain region of hypothalamus at a high dose (300 nmol) with respect to control value(100+/-14); type: functional
[42] = species on record: Mus musculus; test: Long term depletion of Dopamine(DA) in Whole mouse Brain region of cerebellum at a high dose (300 nmol) with respect to control value(100+/-9); type: functional
[43] = species on record: Mus musculus; test: Long term depletion of Serotonin(5-HT) in Whole mouse Brain region of medulla-pons at a high dose (300 nmol) with respect to control value(100+/-6); type: functional
[44] = species on record: Mus musculus; test: Long term depletion of Norepinephrine (NE) in Whole mouse Brain region of medulla-pons at a high dose (300 nmol) with respect to control value(100+/-9); type: functional
[45] = species on record: Mus musculus; test: Long term depletion of Norepinephrine (NE) in Whole mouse Brain region of cortex at a high dose (300 nmol) with respect to control value(100+/-6); type: functional
[46] = species on record: Mus musculus; test: Long term depletion of Dopamine(DA) in Whole mouse Brain region of medulla-pons at a high dose (300 nmol) with respect to control value(100+/-8); type: functional
[47] = species on record: Mus musculus; test: Long term depletion of Norepinephrine (NE) in Whole mouse Brain, region of midbrain at a high dose (300 nmol) with respect to control value(100+/-8); type: functional
[48] = species on record: Mus musculus; test: Long term depletion of Norepinephrine (NE) in Whole mouse Brain region of hippocampus at a high dose (300 nmol) with respect to control value(100+/-10); type: functional
[49] = target: T1, Norepinephrine transporter; test: Evaluated for the Non competitive inhibition of uptake of norepinephrine

T1 sequence (Q9WTR4 whole entry): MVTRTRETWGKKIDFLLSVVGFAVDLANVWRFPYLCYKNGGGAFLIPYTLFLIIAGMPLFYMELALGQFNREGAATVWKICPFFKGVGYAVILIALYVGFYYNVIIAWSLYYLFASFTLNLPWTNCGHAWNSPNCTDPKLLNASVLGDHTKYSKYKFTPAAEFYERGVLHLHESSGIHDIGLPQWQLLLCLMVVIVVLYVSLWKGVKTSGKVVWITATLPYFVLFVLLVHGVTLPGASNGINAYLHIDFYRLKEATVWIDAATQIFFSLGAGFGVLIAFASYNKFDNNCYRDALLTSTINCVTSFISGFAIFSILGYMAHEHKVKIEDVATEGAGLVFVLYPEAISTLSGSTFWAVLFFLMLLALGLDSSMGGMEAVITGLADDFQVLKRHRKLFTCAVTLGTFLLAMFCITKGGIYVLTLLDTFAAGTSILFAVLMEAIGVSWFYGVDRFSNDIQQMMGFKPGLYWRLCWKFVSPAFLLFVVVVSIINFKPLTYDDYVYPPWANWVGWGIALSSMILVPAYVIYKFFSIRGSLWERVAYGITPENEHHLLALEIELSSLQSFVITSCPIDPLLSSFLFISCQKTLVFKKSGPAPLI
Sequence of Sodium-dependent dopamine transporter (P23977 whole entry): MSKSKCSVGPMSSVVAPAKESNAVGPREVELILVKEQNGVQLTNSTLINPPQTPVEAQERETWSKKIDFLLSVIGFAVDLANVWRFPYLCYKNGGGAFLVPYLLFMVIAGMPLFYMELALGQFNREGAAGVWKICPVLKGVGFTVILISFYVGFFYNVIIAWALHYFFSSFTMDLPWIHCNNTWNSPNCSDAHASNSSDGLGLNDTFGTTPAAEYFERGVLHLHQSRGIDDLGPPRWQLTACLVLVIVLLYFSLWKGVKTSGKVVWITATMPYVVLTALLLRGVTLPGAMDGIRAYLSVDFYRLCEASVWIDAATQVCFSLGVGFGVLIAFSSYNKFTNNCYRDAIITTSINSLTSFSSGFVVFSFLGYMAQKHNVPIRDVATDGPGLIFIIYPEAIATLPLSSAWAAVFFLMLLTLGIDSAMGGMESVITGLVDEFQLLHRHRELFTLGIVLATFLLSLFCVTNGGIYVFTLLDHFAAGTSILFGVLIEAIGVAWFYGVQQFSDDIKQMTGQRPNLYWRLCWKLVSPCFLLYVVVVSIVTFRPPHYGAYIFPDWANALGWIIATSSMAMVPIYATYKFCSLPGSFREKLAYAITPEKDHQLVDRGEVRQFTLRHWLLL

Structure (SMILES): CC(N)Cc1cc(N)c(O)cc1O (stereo unspecified)
- Control [1]: 57%
- Control [2]: 83%
- Control [3]: 120%
- Control [4]: 42%
- Control [5]: 8%
- EC50 [6]: 380 µM
- Control [7]: 63%
- Control [8]: 100%
- Control [9]: 77%
- Control [10]: 101%
- EC50 [11]: 672 µM
- Control [12]: 14%
- Control [13]: 1.3%
- Control [14]: 22%
- Control [15]: 59%
- percent of control [16]: 74%
- d50 [17]: 3220 nmol
- Control [18]: 78%
- Control [19]: 110%
- Control [20]: 6.4%
- Control [21]: 93%
- Control [22]: 63%
- Control [23]: 74%
- Control [24]: 104%
- Log d50 [25]: 1.33 nM
- Control [26]: 26%
- Control [27]: 75%
- d50 [28]: 21.5 nmol
- Control [29]: 3.4%
- Control [30]: 103%
- Control [31]: 71%
- Log d50 [32]: 2.96 nM
- Log d50 [33]: 3.51 nM
- Ki [34]: 0.112 µM
- Control [35]: 75%
- Ki [36]: 0.046 µM
- Control [37]: 7%
- d50 [38]: 918 nmol
- Control [39]: 116%
- Control [40]: 154%

Structure (SMILES): NCCc1cc(O)c(N)cc1O
- Control [2]: 72%
- EC50 [6]: 21 µM
- Control [8]: 100%
- EC50 [11]: 34 µM
- Control [14]: 39%
- percent of control [16]: 85%
- Control [26]: 37%
- Control [30]: 73%
- Ki [34]: 0.009 µM
- Ki [36]: 0.005 µM

Structure (SMILES): CC(N)Cc1cc(O)c(O)cc1O (stereo unspecified)
- EC50 [6]: 101 µM
- Control [8]: 87%
- EC50 [11]: 317 µM
- Control [26]: 25%
- Control [30]: 93%
- Ki [34]: 0.016 µM
- Ki [36]: 0.026 µM

Structure (SMILES): NCCc1cc(O)c(O)cc1O [OXIDOPAMINE]
- Control [1]: 53%
- Control [2]: 88%
- Control [4]: 25%
- EC50 [6]: 60 µM
- Control [7]: 71%
- Control [41]: 116%
- Control [42]: 72%
- Control [43]: 109%
- Control [8]: 86%
- Control [9]: 79%
- EC50 [11]: 828 µM
- Control [12]: 18%
- Control [13]: 6.9%
- Control [14]: 35%
- percent of control [16]: 71%
- d50 [17]: 1930 nmol
- Control [18]: 82%
- Control [44]: 47%
- Control [45]: 9%
- Control [21]: 90%
- Control [24]: 103%
- Control [46]: 158%
- Log d50 [25]: 1.53 nM
- Control [26]: 40%
- Control [27]: 89%
- d50 [28]: 34.3 nmol
- Control [29]: 3.8%
- Control [31]: 76%
- Control [47]: 70%
- Log d50 [32]: 2.92 nM
- Log d50 [33]: 3.28 nM
- Ki [34]: 0.012 µM
- Control [35]: 89%
- Ki [36]: 0.051 µM
- Control [37]: 23%
- d50 [38]: 831 nmol
- Control [48]: 5.3%
- Control [39]: 88%
- Control [40]: 151%

Structure (SMILES): CC(N)Cc1cc(O)c(N)cc1O (stereo unspecified)
- Control [2]: 83%
- EC50 [6]: 8 µM
- Ki [49]: 0.001 µM
- Control [8]: 100%
- EC50 [11]: 51 µM
- Control [14]: 40%
- percent of control [16]: 88%
- Control [26]: 33%
- Control [30]: 79%
- Ki [34]: 0.003 µM

Structure (SMILES): NCCc1cc(O)c(O)cc1N
- Control [2]: 74%
- EC50 [6]: 3 µM
- Control [8]: 90%
- EC50 [11]: 23 µM
- Control [14]: 37%
- percent of control [16]: 79%
- Control [26]: 40%
- Control [30]: 78%
- Ki [34]: 0.017 µM
- Ki [36]: 0.011 µM

Structure (SMILES): CC(N)Cc1cc(O)c(O)cc1N (stereo unspecified)
- Control [2]: 59%
- EC50 [6]: 7 µM
- Control [8]: 96%
- EC50 [11]: 21 µM
- Control [14]: 26%
- percent of control [16]: 77%
- Control [26]: 32%
- Control [30]: 72%
- Ki [34]: 0.009 µM
- Ki [36]: 0.008 µM

Structure (SMILES): NCCc1cc(N)c(O)cc1O
- Control [2]: 96%
- EC50 [6]: 105 µM
- Control [8]: 96%
- EC50 [11]: 212 µM
- Control [14]: 36%
- percent of control [16]: 84%
- Control [26]: 40%
- Control [30]: 91%
- Ki [34]: 0.047 µM
- Ki [36]: 0.013 µM
